Where a name gives a salt, the structure may show the parent alone.
What was measured:
[1] = test system: maximal electroshock seizures; assay: Maximal electroshock seizure (MES) test, mouse, i.p.; assay type: in vivo, mouse (male Carworth Farms #1); conditions: for ASP Group Classification, MES Test: mouse, 30, 100 and 300 mg/kg
Description: The hydrazones, hydrazines and semicarbazones derived from pyridyl ketones and the resulting orally effective anticonvulsant compositions of this invention are useful in the treatment of convulsive disorders. […] A series of hydrazones, hydrazines and semicarbazones derived from pyridyl ketones of this invention has been evaluated for anticonvulsant activity by the intraperitoneal (i.p.) and by the oral (p.o.) route using two standard seizure models in the mouse and in the rat, the maximal electroshock seizure (MES) test and the subcutaneous pentylenetetrazole (Metrazole) seizure threshold (scMet) test. […] In addition, the compounds are evaluated in a new model, the threshold tonic extension (TTE) model. […] Thus active compounds that may be missed in the MES and […] the mouse, i.p., can be detected in the TTE test. Based on the screening results, the compounds are placed in one of three categories. […] Class II compounds show anticonvulsant activity at doses greater than 100 mg/kg or show activity at 100 mg/kg which is not reinforced by similar activity at 300 mg/kg. […] The Class I compounds are those which are most promising as anticonvulsants. […] In mice. i.p.: All compounds are emulsified in 0.5% methylcellulose. The solvent has been tested for anticonvulsant and toxic effects and found to introduce no significant bias into the testing of anticonvulsant activity. The compounds are administered intraperitoneally in a volume of 0.01 ml/gm to male Carworth Farms #1 mice weighing about 20 gm. All compounds are tested at least at three dose levels (30, 100 and 300 mg/kg) at 30 minutes and 4 hours after their administration. The Maximal Electroshock Seizure Test (MES): Maximal electroshock seizures are elicited with a 60 Hz alternating current of 50 mA intensity in mice and about 150 mA intensity in rats (5-7 times that necessary to elicit minimal electroshock seizures), delivered for 0.2 sec via corneal electrodes. A drop of 0.9% saline is instilled in the eye prior to application of the electrodes in order to […]. Abolition of the hind limb tonic extension component of the seizure is defined as protection and results are expressed as number of animals protected/number of animals tested. Anticonvulsant Quantification in Mice, i.p.: The ED50 values are determined in the MES, scMet and rotorod ataxia test.

TTE seizure = assay: Threshold tonic extension (TTE) test, mouse, i.p.; assay type: in vivo; conditions: mouse, 100 mg/kg
Description: The hydrazones, hydrazines and semicarbazones derived from pyridyl ketones and the resulting orally effective anticonvulsant compositions of this invention are useful in the treatment of convulsive disorders. […] A series of hydrazones, hydrazines and semicarbazones derived from pyridyl ketones of this invention has been evaluated for anticonvulsant activity by the intraperitoneal (i.p.) and by the oral (p.o.) route using two standard seizure models in the mouse and in the rat, the maximal electroshock seizure (MES) test and the subcutaneous pentylenetetrazole (Metrazole) seizure threshold (scMet) test. […] In addition, the compounds are evaluated in a new model, the threshold tonic extension (TTE) model. […] Thus active compounds that may be missed in the MES and scMet tests in the mouse, i.p., can be detected in the TTE test.
The Threshold Tonic Extension (TTE) Test: The TTE test (Piredda et al., 1985) is a clinically nonselective, electroconvulsive seizure model that identifies compounds that raise seizure threshold as well as those that prevent seizure spread. […] The test is similar to the MES screen but uses a lower level of electrical current. The lower current makes the TTE test more sensitive but less discriminate than the MES screen. This ability makes the model attractive because it allows us to identify compounds that may be missed by our standard identification screen.
Twenty mice are pretreated intraperitoneally with 100 mg/kg of the test substance. At several time intervals (1/4, 1/2, 1, 2, and 4 hours) post treatment with the test drug, four mice at each time point are challenged with 12.5 mA of electrical current for 0.2 seconds via corneal electrodes. This produces a TTE seizure in the animals (Woodbury and Davenport, 1952).
For each time interval results are expressed as a ratio of the number of animals protected over the number tested. […] The positives may represent compounds acting by novel mechanisms.

[2] = test system: maximal electroshock seizures; assay: Maximal electroshock seizure (MES) test, rat, p.o.; assay type: in vivo, rat (Sprague-Dawley); conditions: for Class in the MES Test: Table 7, titled MES Test, Rat; for responders at 30 mg/kg: several time points over a 4 hour period, read-out: Percent Protection at 30 mg/kg, in the MES test
Description: The hydrazones, hydrazines and semicarbazones derived from pyridyl ketones and the resulting orally effective anticonvulsant compositions of this invention are useful in the treatment of convulsive disorders. […] A series of hydrazones, hydrazines and semicarbazones derived from pyridyl ketones of this invention has been evaluated for anticonvulsant activity by the intraperitoneal (i.p.) and by the oral (p.o.) route using two standard seizure models in the mouse and in the rat, the maximal electroshock seizure (MES) test and the subcutaneous pentylenetetrazole (Metrazole) seizure threshold (scMet) test. […] In addition, the compounds are evaluated in a new model, the threshold tonic extension (TTE) model. […] Thus active compounds that may be missed in the MES and […] the mouse, i.p., can be detected in the TTE test. The Maximal Electroshock Seizure Test (MES): Maximal electroshock seizures are elicited with a 60 Hz alternating current of 50 mA intensity in mice and about 150 mA intensity in rats (5-7 times that necessary to elicit minimal electroshock seizures), delivered for 0.2 sec via corneal electrodes. A drop of 0.9% saline is instilled in the eye prior to application of the electrodes in order to […]. Abolition of the hind limb tonic extension component of the seizure is defined as protection and results are expressed as number of animals protected/number of animals tested. […] This species will be the subject of the complete anticonvulsant quantification test evaluation as described above, but after oral (gavage) administration of the candidate compound.

in vivo = assay: in vivo; set-up: species or system mouse (male Carworth Farms #1); conditions: mouse, ip
Protocol: Neurotoxicity is determined by the rotorod ataxia test in mice and by the positional sense test and gait and stance test in the rat.
Neurotoxicity is evaluated in mice by the rotorod ataxia test. The animal is placed on a wooden rod of 1 and 1/8" diameter rotating at 6 rpm. Normal mice can remain on a rod rotating at this speed indefinitely.
Anticonvulsant Quantification in Mice, i.p.: The ED50 values are determined in the MES, scMet and rotorod ataxia test.

Clc1cccc(NN=C(c2ccccc2)c2ccncc2)c1 [Compound 11, Phenyl 4-pyridyl ketone 3-chlorophenylhydrazone]
ASP Group Classification, MES Test [1]: III (Those failing to demonstrate anticonvulsant activity at doses up to 300 mg/kg are considered inactive) | ASP Group Classification, TTE Test (TTE seizure): I (They demonstrate anticonvulsant activity in either the MES test or the scMet test, or both at doses of 100 mg/kg or 30 mg/kg without signs of neurological deficit and thus have an estimated protective index of greater than 1)

Clc1ccc(NN=C(c2ccccc2)c2ccncc2)cc1 [Compound 10, Phenyl 4-pyridyl ketone 4-chlorophenylhydrazone]
ASP Group Classification, MES Test [1]: I (They demonstrate anticonvulsant activity in either the MES test or the scMet test, or both at doses of 100 mg/kg or 30 mg/kg without signs of neurological deficit and thus have an estimated protective index of greater than 1) | Class in the MES Test [2]: I (They demonstrate anticonvulsant activity in either the MES test or the scMet test, or both at doses of 100 mg/kg or 30 mg/kg without signs of neurological deficit and thus have an estimated protective index of greater than 1)

Clc1ccc(NC(c2ccccc2)c2ccncc2)cc1 (centres unmarked) [AAP 4-Pyridyl Ph 4-Cl, reference compound]
Class in the MES Test [2]: III (Those failing to demonstrate anticonvulsant activity at doses up to 300 mg/kg are considered inactive)

CC(Nc1ccc(Cl)c(Cl)c1)c1ccncc1 (centres unmarked) [AAP 4-Pyridyl CH3 3,4-diCl, reference compound]
ED50 ([2]; po, rat, Table 7, read-out: Anticonvulsant Efficacy (ED50, mg/kg) in the MES Test): 29.7 mg/kg

Clc1ccc(NN=C(c2ccccc2)c2ccncc2)cc1Cl [Compound 9, Phenyl 4-pyridyl ketone 3,4-dichlorophenylhydrazone]
ASP Group Classification, MES Test [1]: III (Those failing to demonstrate anticonvulsant activity at doses up to 300 mg/kg are considered inactive) | ASP Group Classification, TTE Test (TTE seizure): I (They demonstrate anticonvulsant activity in either the MES test or the scMet test, or both at doses of 100 mg/kg or 30 mg/kg without signs of neurological deficit and thus have an estimated protective index of greater than 1) | TTE Test (Percent Protection) (TTE seizure): 25%

CC(=NNC(N)=O)c1ccncc1 [Compound 13, Methyl 4-pyridyl ketone semicarbazone]
ASP Group Classification, MES Test [1]: I (They demonstrate anticonvulsant activity in either the MES test or the scMet test, or both at doses of 100 mg/kg or 30 mg/kg without signs of neurological deficit and thus have an estimated protective index of greater than 1)

CC(=NNc1cccc(Cl)c1)c1cccnc1 [Compound 6, Methyl 3-pyridyl ketone 3-chlorophenylhydrazone]
ASP Group Classification, MES Test [1]: I (They demonstrate anticonvulsant activity in either the MES test or the scMet test, or both at doses of 100 mg/kg or 30 mg/kg without signs of neurological deficit and thus have an estimated protective index of greater than 1) | Class in the MES Test [2]: I (They demonstrate anticonvulsant activity in either the MES test or the scMet test, or both at doses of 100 mg/kg or 30 mg/kg without signs of neurological deficit and thus have an estimated protective index of greater than 1)

CCC(=NNc1ccc(Cl)cc1)c1ccncc1 [Compound 8, Ethyl 4-pyridyl ketone 4-chlorophenylhydrazone]
ASP Group Classification, MES Test [1]: I (They demonstrate anticonvulsant activity in either the MES test or the scMet test, or both at doses of 100 mg/kg or 30 mg/kg without signs of neurological deficit and thus have an estimated protective index of greater than 1)

NC(=O)NN=C(c1ccccc1)c1cccnc1 [Compound 16, Phenyl 3-pyridyl ketone semicarbazone]
ED50 ([1]; Mus musculus, ip, mice, Table 5): 21.8 mg/kg | P.I., TD50/ED50, MES ([1]; mice, Table 5): 3.87 | ASP Group Classification, MES Test [1]: I (They demonstrate anticonvulsant activity in either the MES test or the scMet test, or both at doses of 100 mg/kg or 30 mg/kg without signs of neurological deficit and thus have an estimated protective index of greater than 1) | responders at 30 mg/kg ([2]; po, rat, 30 mg/kg): 75 to 100% | protection at 30 mg/kg, MES Test ([2]; rat, 30 mg/kg, Table 7): 75-100% | TD50 (in vivo): 84.6 mg/kg

CC(=NNC(N)=O)c1cccnc1 [Compound 14, Methyl 3-pyridyl ketone semicarbazone]
ASP Group Classification, MES Test [1]: II (show anticonvulsant activity at doses greater than 100 mg/kg or show activity at 100 mg/kg which is not reinforced by similar activity at 300 mg/kg)

CC(=NNc1ccc(Cl)cc1)c1ccncc1 [Compound 2, Methyl 4-pyridyl ketone 4-chlorophenyl hydrazone]
ASP Group Classification, MES Test [1]: I (They demonstrate anticonvulsant activity in either the MES test or the scMet test, or both at doses of 100 mg/kg or 30 mg/kg without signs of neurological deficit and thus have an estimated protective index of greater than 1) | responders at 30 mg/kg ([2]; po, rat, 30 mg/kg): 50 to 75%

CCC(=NNc1ccc(Cl)c(Cl)c1)c1ccncc1 [Compound 7, Ethyl 4-pyridyl ketone 3,4-dichlorophenylhydrazone]
ASP Group Classification, MES Test [1]: III (Those failing to demonstrate anticonvulsant activity at doses up to 300 mg/kg are considered inactive) | ASP Group Classification, TTE Test (TTE seizure): I (They demonstrate anticonvulsant activity in either the MES test or the scMet test, or both at doses of 100 mg/kg or 30 mg/kg without signs of neurological deficit and thus have an estimated protective index of greater than 1) | TTE Test (Percent Protection) (TTE seizure): 25%

CC(Nc1ccc(Cl)cc1)c1cccnc1 (centres unmarked) [AAP 3-Pyridyl CH3 4-Cl, reference compound]
protection at 50 mg/kg, MES Test ([2]; rat, 50 mg/kg, Table 7): 0-75%

CC(Nc1cccc(Cl)c1)c1cccnc1 (centres unmarked) [AAP 3-Pyridyl CH3 3-Cl, reference compound]
Class in the MES Test [2]: II (show anticonvulsant activity at doses greater than 100 mg/kg or show activity at 100 mg/kg which is not reinforced by similar activity at 300 mg/kg)

CC(NNc1ccc(Cl)c(Cl)c1)c1cccnc1 (centres unmarked) [Compound 12, 1-(3,4-dichlorophenyl)-2-[1-(3-pyridyl)]ethylhydrazine dihydrochloride]
ASP Group Classification, MES Test [1]: I (They demonstrate anticonvulsant activity in either the MES test or the scMet test, or both at doses of 100 mg/kg or 30 mg/kg without signs of neurological deficit and thus have an estimated protective index of greater than 1) | responders at 30 mg/kg ([2]; po, rat, 30 mg/kg): 25 to 75%

Reference: patent publication US5942527A, “Hydrazones, hydrazines, semicarbazones and thiosemicarbazones derived from pyridyl ketones as anticonvulsant drugs and excitatory amino acid antagonists” (K & K Biosciences, Inc., priority 1997, dated 1999)
